Assay results reported in patent US7319109B2, “Farnesoid X receptor agonists” (Smith Kline Beecham Corporation, priority 2002, dated 2008).

Biological target: T1, Human FXRα Ligand Binding Domain (FXRα LBD) (Homo sapiens, UniProt Q96RI1)
T1 construct: polyhistidine (N); made in house; host or cells: E. coli BL21 (DE3), pRSET-A vector
T1 sequence (Q96RI1 222-472 isoform Q96RI1-2): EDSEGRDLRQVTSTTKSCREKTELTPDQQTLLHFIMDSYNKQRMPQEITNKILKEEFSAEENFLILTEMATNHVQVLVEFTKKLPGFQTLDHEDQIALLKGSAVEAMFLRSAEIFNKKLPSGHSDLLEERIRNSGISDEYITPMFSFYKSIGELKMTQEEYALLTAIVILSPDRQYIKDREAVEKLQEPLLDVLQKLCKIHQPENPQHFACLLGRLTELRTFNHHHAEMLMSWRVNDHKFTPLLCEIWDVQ
Assay: FXR Affinity Binding Assay: ligand mediated cofactor peptide (SRC-1 LCD2, 676-700) interaction, time resolved fluorescence
Settings: FXRα LBD-APC / europium labeled SRC-1 peptide, TRF signal, at least 2 hours at room temperature; read-out: Activity (pEC50) (converted)
Method: Determination of a ligand mediated cofactor peptide interaction to quantify ligand binding to the nuclear receptor Farnasoid X Receptor (FXR). The method measures the ability of putative ligands to modulate the interaction between the purified bacterial expressed FXRα (LBD) and a synthetic biotinylated peptide based on residues 676-700 of SRC-1(LCD2, 676-700). […] Detection of the associated complex is measured by time resolved fluorescence (TRF). The purified LBD of FXR is labeled with biotin then mixed with stoichiometric amounts of APC labeled streptavidin (Molecular Probes). The biotinylated peptide is then mixed with a ½ stoichiometric amount of europium labeled streptavidin (Wallac Inc). Each is then blocked with a 5 fold excess of biotin and allowed to equilibrate for 15 min. Equimolar amounts of receptor and peptide are mixed together and allowed to equilibrate for at least 30 min prior to the addition to either a variable or constant concentrations of the sample for which the affinity is to be determined. After equilibration, the time-resolved fluorescent signal is quantitated using a fluorescent plate reader. The affinity of the test compound is estimated from a plot of fluorescence versus concentration of test compound added.
Ligands that promote the complex formation induce a concentration-dependent increase in time-resolved fluorescent signal.
Human FXRα Ligand Binding Domain (FXRα LBD) was expressed in E.coli strain BL21 (DE3) as an amino-terminal polyhistidine tagged fusion protein. Expression was under the control of an IPTG inducible T7 promoter. DNA encoding this recombinant protein was subcloned into the pRSET-A expression vector (Invitrogen). The coding sequence of Human FXRα LBD was derived from Genbank accession number U 68233 (amino acids 222 to 472).
Routinely, 30-40 g cell paste (equivalent to 2-3 liters of the fermentation batch) was resuspended in 200-250 mL TBS, pH 7.2 (25mM Tris, 150 mM NaCl). Cells were lysed by passing 3 times through a French Press and cell debris was removed by centrifugation (30 minutes, 20,000 g, 4° C.). The cleared supernatant was filtered through course pre-filters, and TBS, pH 7.2, containing 500 mM imidazole was added to obtain a final imidazole concentration of 50 mM. This lysate was loaded onto a column (6×8 cm) packed with Sepharose [Ni^++ charged]Chelation resin (Pharmacia) and pre-equilibrated with TBS pH 7.21 50 mM imidazole. After washing to baseline absorbance with equilibration buffer, the column was washed with one column volume of TBS pH 7.2 containing 90 mM imidazole. FXRαLBD was eluted directly with 365 mM imidazole. Column fractions were pooled and dialyzed against TBS, pH 7.2, containing 0.5 mM EDTA and 5 mM DTT. The dialyzed protein sample was concentrated using Centri-prep 10 K (Amicon) and subjected to size exclusion, using a column (3×90 cm) packed with Sepharose S-75 resin (Pharmacia) pre-equilibrated with TBS, pH 7.2, containing 0.5 mM EDTA and 5 mM DTT.
Purified FXRα LBD was desalted/buffer exchanged using PD-10 gel filtration columns into PBS [100 mM NaPhosphate, pH 7.2, 150 mM NaCl]. FXRα LBD was diluted to approximately 10 μM in PBS and five-fold molar excess of NHS-LC-Biotin (Pierce) was added in a minimal volume of PBS. This solution was incubated with gentle mixing for 30 minutes at room temperature. The biotinylation modification reaction was stopped by the addition of 2000× molar excess of Tris-HCl, pH 8. The modified FXRα LBD was dialyzed against 4 buffer changes, each of at least 50 volumes, PBS containing 5 mM DTT, 2 mM EDTA and 2% sucrose.

Cc1cc(OCc2c(-c3c(Cl)cc(Cl)cc3Cl)noc2C(C)C)ccc1N(C)Cc1cccc(C(=O)O)c1 [Example 14, 3-{[(4-{[5-Isopropyl-3-(2,4,6-trichlorophenyl)isoxazol-4-yl]methoxy}-2-methylphenyl)-(methyl)amino]methyl}benzoic acid]
EC50: 102 to 1000 nM

COC(=O)c1ccc(S(=O)(=O)Nc2ccc(OCc3c(-c4c(Cl)cccc4Cl)noc3C(C)C)cc2)cc1 [Example 55, Methyl 4-{[(4-{[3-(2,6-dichlorophenyl)-5-isopropylisoxazol-4-yl]methoxy}phenyl)-amino]sulfonyl}benzoate]
EC50: 1020 to 10000 nM

CC(C)c1onc(-c2c(Cl)cccc2Cl)c1COc1ccc(N(C)S(=O)(=O)c2ccc(C(=O)O)cc2)c(Cl)c1 [Example 62, 4-{[(2-Chloro-4-{[3-(2,6-dichlorophenyl)-5-isopropylisoxazol-4-yl]methoxy}phenyl)-(methyl)amino]sulfonyl}benzoic acid]
EC50: < 100 nM

Cc1cc(OCc2c(Cc3c(Cl)cccc3Cl)noc2C(C)C)ccc1N(C)Cc1cccc(C(=O)O)c1 [Example 15, 3-[(4-{[3-(2,6-Dichlorobenzyl)-5-isopropyl-4-isoxazolyl]methoxy}-2-dimethylanilino)methyl]benzoic acid]
EC50: 102 to 1000 nM

Cc1cc(OCc2c(-c3c(Cl)cccc3Cl)noc2C(C)C)ccc1COc1cccc(C(=O)O)c1 [Example 79, 3-[(4-{[3-(2,6-Dichlorophenyl)-5-isopropylisoxazol-4-yl]methoxy}-2-methylbenzyl)oxy]-benzoic acid]
EC50: < 100 nM

Cc1cc(OCc2c(-c3c(Cl)cccc3Cl)noc2C(C)C)ccc1N(C)Cc1occc1C(=O)O [Example 10, 2-[(4-{[3-(2,6-Dichlorophenyl)-5-isopropyl-4-isoxazolyl]methoxy}-2-dimethylanilino)methyl]-3-furoic acid]
EC50: 102 to 1000 nM

CCN(c1ccc(OCc2c(-c3c(Cl)cccc3Cl)noc2C(C)C)cc1C)S(=O)(=O)c1cccc(C(=O)OC)c1 [Example 44, Methyl 3-{[(4-{[3-(2,6-dichlorophenyl)-5-isopropylisoxazol-4-yl]methoxy}-2-methyl-phenyl)(ethyl)amino]sulfonyl}benzoate]
EC50: 102 to 1000 nM

CC(C)c1onc(-c2c(Cl)cccc2Cl)c1COc1ccc(N(C)S(=O)(=O)c2ccc(C(=O)O)cc2)cc1 [Example 64, 4-{[(4-{[3-(2,6-Dichlorophenyl)-5-isopropylisoxazol-4-yl]methoxy}phenyl)(methyl)-amino]sulfonyl}benzoic acid]
EC50: 102 to 1000 nM

COC(=O)c1ccc(S(=O)(=O)N(C)c2ccc(OCc3c(-c4c(Cl)cccc4Cl)noc3C(C)C)cc2C)cc1 [Example 59, Methyl 4-{[(4-{[3-(2,6-dichlorophenyl)-5-isopropylisoxazol-4-yl]methoxy}-2-methyl-phenyl)(methyl)amino]sulfonyl}benzoate]
EC50: 102 to 1000 nM

COC(=O)c1ccc(COc2ccc(OCc3c(-c4c(Cl)cccc4Cl)noc3C(C)C)cc2C)cc1 [Example 98, Methyl 4-[(4-{[3-(2,6-dichlorophenyl)-5-isopropylisoxazol-4-yl]methoxy}-2-methylphenoxy)methyl]benzoate]
EC50: 1020 to 10000 nM

Cc1cc(OCc2c(-c3c(Cl)cccc3Cl)noc2C(C)C)ccc1N(C)C(=O)c1cccc(C(=O)O)c1 [Example 29, 3-[(4-{[3-(2,6-Dichlorophenyl)-5-isopropyl-4-isoxazolyl]methoxy}-2-dimethylanilino)carbonyl]benzoic acid]
EC50: 102 to 1000 nM

COC(=O)c1ccc(S(=O)(=O)Nc2ccc(OCc3c(-c4c(Cl)cccc4Cl)noc3C(C)C)cc2Cl)cc1 [Example 53, Methyl 4-{[(2-chloro-4-{[3-(2,6-dichlorophenyl)-5-isopropylisoxazol-4-yl]methoxy}-phenyl)amino]sulfonyl}benzoate]
EC50: 102 to 1000 nM

CC(C)c1onc(-c2c(Cl)cccc2Cl)c1COc1ccc(N(C)S(=O)(=O)c2cccc(C(=O)O)c2)c(Cl)c1 [Example 47, 3-{[(2-Chloro-4-{[3-(2,6-dichlorophenyl)-5-isopropylisoxazol-4-yl]methoxy}phenyl)-(methyl)amino]sulfonyl}benzoic acid]
EC50: < 100 nM

CC(C)c1onc(-c2c(Cl)cccc2Cl)c1COc1ccc(OCc2cccc(C(=O)O)c2)c(Cl)c1 [Example 101, 3-[(2-Chloro-4-{[3-(2,6-dichlorophenyl)-5-isopropylisoxazol-4-yl]methoxy}phenoxy)-methyl]benzoic acid]
EC50: 102 to 1000 nM

CC(C)c1onc(-c2c(Cl)cccc2Cl)c1COc1ccc(NS(=O)(=O)c2cccc(C(=O)O)c2)c(Cl)c1 [Example 46, 3-{[(2-Chloro-4-{[3-(2,6-dichlorophenyl)-5-isopropylisoxazol-4-yl]methoxy}phenyl)amino]sulfonyl}benzoic acid]
EC50: 102 to 1000 nM

CC(C)c1onc(-c2c(Cl)cccc2Cl)c1COc1ccc(NCc2cccc(C(=O)O)c2)c(Cl)c1 [Example 3, 3-{[(2-Chloro-4-{[3-(2,6-dichlorophenyl)-5-isopropylisoxazol-4-yl]methoxy}phenyl)amino]methyl}benzoic acid]
EC50: 102 to 1000 nM

Cc1cc(OCc2c(-c3c(Cl)cccc3Cl)noc2C(C)C)ccc1NS(=O)(=O)c1ccc(C(=O)O)cc1 [Example 57, 4-{[(4-{[3-(2,6-Dichlorophenyl)-5-isopropylisoxazol-4-yl]methoxy}-2-methylphenyl)-amino]sulfonyl}benzoic acid]
EC50: 102 to 1000 nM

CC(C)c1onc(-c2ccccc2OC(F)(F)F)c1COc1ccc(CN(C)c2cccc(C(=O)O)c2)c(Cl)c1 [Example 97, 3-[[2-Chloro-4-({5-isopropyl-3-[2-(trifluoromethoxy)phenyl]-4-isoxazolyl}methoxy)benzyl](methyl)amino]benzoic acid]
EC50: 102 to 1000 nM

CC(C)c1onc(-c2c(Cl)cccc2Cl)c1COc1ccc(CSc2cccc(C(=O)O)c2)c(Cl)c1 [Example 78, 3-[(2-Chloro-4-{[3-(2,6-dichlorophenyl)-5-isopropylisoxazol-4-yl]methoxy}benzyl)thio]-benzoic acid]
EC50: < 100 nM

CC(C)c1onc(-c2c(Cl)cccc2Cl)c1COc1ccc(CNc2cccc(C(=O)O)c2)c(Cl)c1 [Example 94, 3-[(2-Chloro-4-{[3-(2,6-dichlorophenyl)-5-isopropylisoxazol-4-yl]methoxy}benzyl)amino]benzoic acid]
EC50: 102 to 1000 nM

COC(=O)c1cccc(OCc2ccc(OCc3c(-c4c(Cl)cccc4Cl)noc3C(C)C)cc2Cl)c1 [Example 76, Methyl 3-[(2-chloro-4-{[3-(2,6-dichlorophenyl)-5-isopropylisoxazol-4-yl]methoxy}benzyl)-oxy]benzoate]
EC50: 102 to 1000 nM

CC(C)c1onc(-c2c(Cl)cccc2Cl)c1COc1ccc(NS(=O)(=O)c2ccc(C(=O)O)cc2)cc1 [Example 58, 4-{[(4-{[3-(2,6-Dichlorophenyl)-5-isopropylisoxazol-4-yl]methoxy}phenyl)amino]-sulfonyl}benzoic acid]
EC50: 102 to 1000 nM

CC(C)c1onc(-c2c(Cl)cccc2Cl)c1COc1ccc(COc2cccc(C(=O)O)c2)c(Cl)c1 [Example 77, 3-[(2-Chloro-4-{[3-(2,6-dichlorophenyl)-5-isopropylisoxazol-4-yl]methoxy}benzyl)oxy]-benzoic acid]
EC50: < 100 nM
